Test results from PubChem BioAssay AID1259407 (Chemical Carcinogenesis Research Information System (CCRIS), 2018).
Activity calls are given as the source filed them. No rule for the calls is given here.

Tested on: CCRIS mutagenicity, Ames/micronucleus/aberration tests
Test: CCRIS mutagenicity studies

Cc1ccc(N)cc1
mutagenic call (Test System: AMES SALMONELLA TYPHIMURIUM, Strain/Indicator: TA97, Metabolic Activation: HAMSTER, LIVER, S-9, AROCLOR 1254 (10%), Method: PREINCUBATION): inactive; negative
mutagenic call (Test System: AMES SALMONELLA TYPHIMURIUM, Strain/Indicator: TA97, Metabolic Activation: HAMSTER, LIVER, S-9, AROCLOR 1254 (30%), Method: PREINCUBATION): inactive; negative
mutagenic call (Test System: AMES SALMONELLA TYPHIMURIUM, Strain/Indicator: TA97, Metabolic Activation: NONE, Method: PREINCUBATION): inactive; negative
mutagenic call (Test System: AMES SALMONELLA TYPHIMURIUM, Strain/Indicator: TA97, Metabolic Activation: RAT, LIVER, S-9, AROCLOR 1254 (10%), Method: PREINCUBATION): inactive; negative
mutagenic call (Test System: AMES SALMONELLA TYPHIMURIUM, Strain/Indicator: TA97, Metabolic Activation: RAT, LIVER, S-9, AROCLOR 1254 (30%), Method: PREINCUBATION): inactive; negative
mutagenic call (Test System: AMES SALMONELLA TYPHIMURIUM, Strain/Indicator: TA98, Metabolic Activation: HAMSTER, LIVER, S-9, AROCLOR 1254 (10%), Method: PREINCUBATION): inactive; negative
mutagenic call (Test System: AMES SALMONELLA TYPHIMURIUM, Strain/Indicator: TA98, Metabolic Activation: HAMSTER, LIVER, S-9, AROCLOR 1254 (30%), Method: PREINCUBATION): inactive; negative
mutagenic call (Test System: AMES SALMONELLA TYPHIMURIUM, Strain/Indicator: TA98, Metabolic Activation: HAMSTER, LIVER, S-9, SODIUM PHENOBARBITAL AND 5,6-BENZOFLAVONE, Method: PREINCUBATION): inactive; negative
mutagenic call (Test System: AMES SALMONELLA TYPHIMURIUM, Strain/Indicator: TA98, Metabolic Activation: NONE, Method: PREINCUBATION): inactive; negative
mutagenic call (Test System: AMES SALMONELLA TYPHIMURIUM, Strain/Indicator: TA98, Metabolic Activation: RAT LIVER S-9, PHENOBARBITAL AND BETA-NAPHTHOFLAVONE, Method: PREINCUBATION): inactive; negative
mutagenic call (Test System: AMES SALMONELLA TYPHIMURIUM, Strain/Indicator: TA98, Metabolic Activation: RAT, LIVER, S-9, AROCLOR 1254 (10%), Method: PREINCUBATION): inactive; negative
mutagenic call (Test System: AMES SALMONELLA TYPHIMURIUM, Strain/Indicator: TA98, Metabolic Activation: RAT, LIVER, S-9, AROCLOR 1254 (30%), Method: PREINCUBATION): inactive; negative
mutagenic call (Test System: AMES SALMONELLA TYPHIMURIUM, Strain/Indicator: TA100, Metabolic Activation: HAMSTER, LIVER, S-9, AROCLOR 1254 (10%), Method: PREINCUBATION): inactive; negative
mutagenic call (Test System: AMES SALMONELLA TYPHIMURIUM, Strain/Indicator: TA100, Metabolic Activation: HAMSTER, LIVER, S-9, AROCLOR 1254 (30%), Method: PREINCUBATION): active; positive
mutagenic call (Test System: AMES SALMONELLA TYPHIMURIUM, Strain/Indicator: TA100, Metabolic Activation: HAMSTER, LIVER, S-9, SODIUM PHENOBARBITAL AND 5,6-BENZOFLAVONE, Method: PREINCUBATION): inactive; negative
mutagenic call (Test System: AMES SALMONELLA TYPHIMURIUM, Strain/Indicator: TA100, Metabolic Activation: NONE, Method: PREINCUBATION): inactive; negative
mutagenic call (Test System: AMES SALMONELLA TYPHIMURIUM, Strain/Indicator: TA100, Metabolic Activation: RAT LIVER S-9, PHENOBARBITAL AND BETA-NAPHTHOFLAVONE, Method: PREINCUBATION): inactive; negative
mutagenic call (Test System: AMES SALMONELLA TYPHIMURIUM, Strain/Indicator: TA100, Metabolic Activation: RAT, LIVER, S-9, AROCLOR 1254 (10%), Method: PREINCUBATION): inactive; negative
mutagenic call (Test System: AMES SALMONELLA TYPHIMURIUM, Strain/Indicator: TA100, Metabolic Activation: RAT, LIVER, S-9, AROCLOR 1254 (30%), Method: PREINCUBATION): inactive; negative
mutagenic call (Test System: AMES SALMONELLA TYPHIMURIUM, Strain/Indicator: TA102, Metabolic Activation: HAMSTER, LIVER, S-9, SODIUM PHENOBARBITAL AND 5,6-BENZOFLAVONE, Method: PREINCUBATION): inactive; negative
mutagenic call (Test System: AMES SALMONELLA TYPHIMURIUM, Strain/Indicator: TA102, Metabolic Activation: NONE, Method: PREINCUBATION): inactive; negative
mutagenic call (Test System: AMES SALMONELLA TYPHIMURIUM, Strain/Indicator: TA104, Metabolic Activation: HAMSTER, LIVER, S-9, SODIUM PHENOBARBITAL AND 5,6-BENZOFLAVONE, Method: PREINCUBATION): inactive; negative
mutagenic call (Test System: AMES SALMONELLA TYPHIMURIUM, Strain/Indicator: TA104, Metabolic Activation: NONE, Method: PREINCUBATION): inactive; negative
mutagenic call (Test System: AMES SALMONELLA TYPHIMURIUM, Strain/Indicator: TA1535, Metabolic Activation: HAMSTER, LIVER, S-9, AROCLOR 1254 (10%), Method: PREINCUBATION): inactive; negative
mutagenic call (Test System: AMES SALMONELLA TYPHIMURIUM, Strain/Indicator: TA1535, Metabolic Activation: HAMSTER, LIVER, S-9, AROCLOR 1254 (30%), Method: PREINCUBATION): inactive; negative
mutagenic call (Test System: AMES SALMONELLA TYPHIMURIUM, Strain/Indicator: TA1535, Metabolic Activation: HAMSTER, LIVER, S-9, SODIUM PHENOBARBITAL AND 5,6-BENZOFLAVONE, Method: PREINCUBATION): inactive; negative
mutagenic call (Test System: AMES SALMONELLA TYPHIMURIUM, Strain/Indicator: TA1535, Metabolic Activation: NONE, Method: PREINCUBATION): inactive; negative
mutagenic call (Test System: AMES SALMONELLA TYPHIMURIUM, Strain/Indicator: TA1535, Metabolic Activation: RAT LIVER S-9, PHENOBARBITAL AND BETA-NAPHTHOFLAVONE, Method: PREINCUBATION): inactive; negative
mutagenic call (Test System: AMES SALMONELLA TYPHIMURIUM, Strain/Indicator: TA1535, Metabolic Activation: RAT, LIVER, S-9, AROCLOR 1254 (10%), Method: PREINCUBATION): inactive; negative
mutagenic call (Test System: AMES SALMONELLA TYPHIMURIUM, Strain/Indicator: TA1535, Metabolic Activation: RAT, LIVER, S-9, AROCLOR 1254 (30%), Method: PREINCUBATION): inactive; negative
mutagenic call (Test System: AMES SALMONELLA TYPHIMURIUM, Strain/Indicator: TA1537, Metabolic Activation: HAMSTER, LIVER, S-9, SODIUM PHENOBARBITAL AND 5,6-BENZOFLAVONE, Method: PREINCUBATION): inactive; negative
mutagenic call (Test System: AMES SALMONELLA TYPHIMURIUM, Strain/Indicator: TA1537, Metabolic Activation: NONE, Method: PREINCUBATION): inactive; negative
mutagenic call (Test System: AMES SALMONELLA TYPHIMURIUM, Strain/Indicator: TA1537, Metabolic Activation: RAT LIVER S-9, PHENOBARBITAL AND BETA-NAPHTHOFLAVONE, Method: PREINCUBATION): inactive; negative
mutagenic call (Test System: E. COLI, Strain/Indicator: WP2UVRA/PKM101, Metabolic Activation: HAMSTER, LIVER, S-9, SODIUM PHENOBARBITAL AND 5,6-BENZOFLAVONE, Method: PREINCUBATION): inactive; negative
mutagenic call (Test System: E. COLI, Strain/Indicator: WP2UVRA/PKM101, Metabolic Activation: NONE, Method: PREINCUBATION): inactive; negative
mutagenic call (Test System: E. COLI, Strain/Indicator: WP2UVRA, Metabolic Activation: HAMSTER, LIVER, S-9, SODIUM PHENOBARBITAL AND 5,6-BENZOFLAVONE, Method: PREINCUBATION): inactive; negative
mutagenic call (Test System: E. COLI, Strain/Indicator: WP2 UVRA, Metabolic Activation: NONE, Method: FLUCTUATION TEST): inactive; negative
mutagenic call (Test System: E. COLI, Strain/Indicator: WP2UVRA, Metabolic Activation: NONE, Method: PREINCUBATION): inactive; negative
mutagenic call (Test System: E.COLI, Strain/Indicator: WP2UVRA, Metabolic Activation: NONE, Method: PREINCUBATION): inactive; negative
mutagenic call (Test System: E.COLI, Strain/Indicator: WP2UVRA, Metabolic Activation: RAT LIVER S-9, PHENOBARBITAL AND BETA-NAPHTHOFLAVONE, Method: PREINCUBATION): inactive; negative

CCCS
mutagenic call (Test System: MOUSE LYMPHOMA, Strain/Indicator: L5178Y (TK+/TK-), Metabolic Activation: RAT, LIVER, S-9, AROCLOR 1254, Method: SUSPENSION/PLATE): active; positive. reevaluation of results: equivocal
mutagenic call (Test System: Mouse lymphoma, Strain/Indicator: L5178Y (tk+/tk-), Metabolic Activation: None, Method: Suspension/plate): inactive; negative
